Experimental data reported in article PMC11403612, “Preparation and Preclinical Characterization of a Simple Ester for Dual Exogenous Supply of Lactate and Beta-hydroxybutyrate” (Journal of Agricultural and Food Chemistry, 2024).

Experiments:
[1] = Extended pharmacokinetics of LaKe in rats (LaKe, lactate, BHB plasma levels); format: in vivo, SD rats
Method: Animals (SD rats, both male and female, 7–9 weeks) were individually housed from 24 h before dosing until the end of the study. Food was withdrawn the night before initiation of study; following food withdrawal, animals were maintained on glucose water containing 5% w/v glucose and 1% saline to suppress endogenous ketone production throughout the study. Food was returned 8 h post-test article dosing. Animals were monitored for distress or notable changes in behavior during the study. The animals were euthanized by CO2 inhalation 2 h after the last sample collection time point.
Blood collection was performed by jugular vein cannulation of each animal and divided into two parts. About 10–15 μL of blood was used for the analysis of glucose by glucometer measurement. About 0.20 mL of blood was collected into prechilled commercial EDTA-K2 tubes containing 5 μL of the esterase inhibitor (100 mM PMSF in ethanol, 40 mg/mL NaF and 120 mg/mL […] in water = 5:95(v/v). All blood samples were placed on wet ice until centrifugation.
At least 100 μL plasma was collected respectively and transferred into polypropylene tubes with 400 mM TTFA (2-thenoyltrifluoroacetone) in ethanol (plasma:stabilizer = 100:5 (v:v)). The final concentration of TTFA in the plasma sample from each time point was approximately 20 mM. The samples were snap frozen over dry ice and kept at −60 °C or lower until LC-MS/MS analysis for 3-hydroxybutyl 2-hydroxypropanoate (LaKe), lactate, and β-hydroxybutyrate (BHB).
Calibration curves were constructed by linear regression of the peak area of the pure calibrant samples versus the nominal analyte concentrations and based on eight points. The Lac-Phe concentrations in rat plasma samples were derived from their peak area with reference to the calibration curve.
Extended pharmacokinetics of LaKe in rats – Detailed protocols for LC-MS/MS analyses 3-hydroxybutyl 2-hydroxypropanoate (LaKe): […]
3-hydroxybutyl 2-hydroxypropanoate (LaKe) was detected by SRM. […]

[2] = Microsomal stability of LaKe, rat; format: in vitro ADME, SD Rat
Method: The in vitro stability of LaKe was evaluated following incubation in simulated gastric fluid (SGF), simulated intestinal fluid (SIF), fresh and frozen plasma (rats and humans, respectively), and the presence of hepatocytes (rats and humans) and liver microsomes (rats and humans). At the chosen time points, the mixtures were analyzed by LC-MS/MS to quantify the remaining LaKe and all assays included at least one control compound with known pharmacokinetic properties.
Hepatocyte stability of LaKe
Cells: Rat hepatocytes (BioreclamationIVT, M0005); Human hepatocytes (BioreclamationIVT, X008001) Thawing Medium: Williams’ Medium E containing 5% fetal bovine serum and 30% Percoll solution and other […]
Incubation Medium: Williams’ Medium E (no phenol red) containing 2 mM L-Glutamine and 25 mM HEPES.
Stop Solution: Acetonitrile containing 200 ng/mL tolbutamide and labetalol as internal standards.
Dilution Solution: Ultra-pure water.
Preparation of Quenching Plate: Transfer 125 μL of stop solution (acetonitrile containing 200 ng/mL tolbutamide and 200 ng/mL labetalol as internal standards) in a set of pre-labeled 96-well plates.
Cryopreserved cells were thawed, isolated and suspended in Incubation Medium, then diluted with pre-warmed Incubation Medium to 0.5 × 10^6 cells/mL. 198 μL of pre-warmed cell suspensions were added in 96-well plates. […]

## CC(O)CCOC(=O)C(C)O (centres unmarked) [LaKe, 3-hydroxybutyl 2-hydroxypropanoate]
[1]; both sexes, SD, rat, plasma, oral, 1.3 g/kg, the lower dose, 15 min
  concentration at 15 min: 540 nM
[1]; both sexes, SD, rat, plasma, oral, 1.3 g/kg, the lower dose, 30 min
  concentration at 30 min: 260 nM
[1]; maximum dose of 12 g/kg
  maximum average plasma level of LaKe: 5 µM
[2]; presence of NADPH
  turnover in liver microsomes: underwent turnover
[2]; rat liver microsomes, absence of NADPH, after 60 min
  LaKe remaining: 55%
